Test results: ChEMBL document CHEMBL1201862, “PubChem BioAssay data set” (2004)
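Briefly, cells in 96-well plates were exposed to five compound concentrations for 48 h, and endpoints were estimated by linear interpolation. GI50 = concentration required for 50% inhibition of growth.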 Activity calls are given as the source filed them. Rule as the data show it: active = GI50 up to about 1.1 µM and inactive = higher.

What was measured:
Experiment in all cases: DTP human tumour cell line panel, 48 h
UACC-62 = system: UACC-62
Malme-3M = system: Malme-3M
SK-MEL-28 = system: SK-MEL-28
U-251 = system: U-251
HCC 2998 = system: HCC 2998
LXFL 529 = system: LXFL 529
HOP-92 = system: HOP-92
M14 = system: M14
RXF 393 = system: RXF 393
KM12 = system: KM12
IGROV-1 = system: IGROV-1
NCI-H522 = system: NCI-H522
A549 = system: A549
OVCAR-8 = system: OVCAR-8
786-0 = system: 786-0
SK-OV-3 = system: SK-OV-3
CAKI-1 = system: CAKI-1
SW-620 = system: SW-620
SF-268 = system: SF-268
HOP-18 = system: HOP-18
SNB-78 = system: SNB-78
KM-20L2 = system: KM-20L2
SK-MEL-5 = system: SK-MEL-5
DLD-1 = system: DLD-1
SNB-19 = system: SNB-19
NCI-H460 = system: NCI-H460
TK-10 = system: TK-10
UO-31 = system: UO-31
NCI-H226 = system: NCI-H226
HCT-116 = system: HCT-116
SNB-75 = system: SNB-75
XF498 = system: XF498
DMS-273 = system: DMS-273
DMS-114 = system: DMS-114
A498 = system: A498
CCRF-CEM = system: CCRF-CEM
SF-295 = system: SF-295
ACHN = system: ACHN
HOP-62 = system: HOP-62
LOX IMVI = system: LOX IMVI
HT-29 = system: HT-29
NCI-H23 = system: NCI-H23
HL-60 = system: HL-60
HCT-15 = system: HCT-15
EKVX = system: EKVX
K562 = system: K562
SK-MEL-2 = system: SK-MEL-2
UACC-257 = system: UACC-257
COLO 205 = system: COLO 205
OVCAR-4 = system: OVCAR-4
MOLT-4 = system: MOLT-4
OVCAR-5 = system: OVCAR-5
M19-MEL = system: M19-MEL
SN12C = system: SN12C
SF-539 = system: SF-539
OVCAR-3 = system: OVCAR-3
RPMI-8226 = system: RPMI-8226

CC1(O)C(C)(O)C(C)(O)C1(C)O (configuration not stated)
GI50 (UACC-62): > 100 µM (inactive)
GI50 (Malme-3M): > 100 µM (inactive)
GI50 (SK-MEL-28): > 100 µM (inactive)
GI50 (U-251): > 100 µM (inactive)
GI50 (HCC 2998): > 100 µM (inactive)
GI50 (LXFL 529): > 100 µM (inactive)
GI50 (HOP-92): > 100 µM (inactive)
GI50 (M14): > 100 µM (inactive)
GI50 (RXF 393): > 100 µM (inactive)
GI50 (KM12): > 100 µM (inactive)
GI50 (IGROV-1): > 100 µM (inactive)
GI50 (NCI-H522): > 100 µM (inactive)
GI50 (A549): > 100 µM (inactive)
GI50 (OVCAR-8): > 100 µM (inactive)
GI50 (786-0): > 100 µM (inactive)
GI50 (SK-OV-3): > 100 µM (inactive)
GI50 (CAKI-1): > 100 µM (inactive)
GI50 (SW-620): > 100 µM (inactive)
GI50 (SF-268): > 100 µM (inactive)
GI50 (HOP-18): > 100 µM (inactive)
GI50 (SNB-78): > 100 µM (inactive)
GI50 (KM-20L2): > 100 µM (inactive)
GI50 (SK-MEL-5): > 100 µM (inactive)
GI50 (DLD-1): > 100 µM (inactive)
GI50 (SNB-19): > 100 µM (inactive)
GI50 (NCI-H460): > 100 µM (inactive)
GI50 (TK-10): > 100 µM (inactive)
GI50 (UO-31): > 100 µM (inactive)
GI50 (NCI-H226): > 100 µM (inactive)
GI50 (HCT-116): > 100 µM (inactive)
GI50 (SNB-75): > 100 µM (inactive)
GI50 (XF498): > 100 µM (inactive)
GI50 (DMS-273): > 100 µM (inactive)
GI50 (DMS-114): > 100 µM (inactive)
GI50 (A498): > 100 µM (inactive)
GI50 (CCRF-CEM): > 100 µM (inactive)
GI50 (SF-295): > 100 µM (inactive)
GI50 (ACHN): > 100 µM (inactive)
GI50 (HOP-62): > 100 µM (inactive)
GI50 (LOX IMVI): > 100 µM (inactive)
GI50 (HT-29): > 100 µM (inactive)
GI50 (NCI-H23): > 100 µM (inactive)
GI50 (HL-60): > 100 µM (inactive)
GI50 (HCT-15): > 100 µM
GI50 (EKVX): > 100 µM (inactive)
GI50 (K562): > 100 µM (inactive)
GI50 (SK-MEL-2): > 100 µM (inactive)
GI50 (UACC-257): > 100 µM (inactive)
GI50 (COLO 205): > 100 µM (inactive)
GI50 (OVCAR-4): > 100 µM (inactive)
GI50 (MOLT-4): > 100 µM (inactive)
GI50 (OVCAR-5): > 100 µM (inactive)
GI50 (M19-MEL): > 100 µM (inactive)
GI50 (SN12C): > 100 µM (inactive)
GI50 (SF-539): > 100 µM (inactive)
GI50 (OVCAR-3): > 100 µM (inactive)

CC(C)(C)C1CCC2(CC1)c1[nH]c3ccccc3c1C1(CCC(C(C)(C)C)CC1)c1[nH]c3ccccc3c12 (configuration not stated)
GI50 (UACC-62): > 100 µM (inactive)
GI50 (Malme-3M): > 100 µM (inactive)
GI50 (SK-MEL-28): > 100 µM (inactive)
GI50 (U-251): 87.3 µM (inactive)
GI50 (HCC 2998): > 100 µM (inactive)
GI50 (LXFL 529): > 100 µM (inactive)
GI50 (HOP-92): > 100 µM (inactive)
GI50 (M14): > 100 µM (inactive)
GI50 (RXF 393): > 100 µM (inactive)
GI50 (KM12): > 100 µM (inactive)
GI50 (IGROV-1): > 100 µM (inactive)
GI50 (RPMI-8226): > 100 µM (inactive)
GI50 (NCI-H522): > 100 µM (inactive)
GI50 (A549): > 100 µM (inactive)
GI50 (OVCAR-8): > 100 µM (inactive)
GI50 (786-0): 7.08 µM (inactive)
GI50 (SK-OV-3): > 100 µM (inactive)
GI50 (CAKI-1): > 100 µM (inactive)
GI50 (SW-620): 39.4 µM (inactive)
GI50 (SF-268): > 100 µM (inactive)
GI50 (HOP-18): > 100 µM (inactive)
GI50 (SNB-78): > 100 µM (inactive)
GI50 (KM-20L2): > 100 µM (inactive)
GI50 (SK-MEL-5): > 100 µM (inactive)
GI50 (DLD-1): > 100 µM (inactive)
GI50 (SNB-19): > 100 µM (inactive)
GI50 (NCI-H460): > 100 µM (inactive)
GI50 (TK-10): > 100 µM (inactive)
GI50 (UO-31): > 100 µM (inactive)
GI50 (NCI-H226): > 100 µM (inactive)
GI50 (HCT-116): 41.6 µM (inactive)
GI50 (SNB-75): 70.1 µM (inactive)
GI50 (XF498): > 100 µM (inactive)
GI50 (DMS-273): > 100 µM (inactive)
GI50 (DMS-114): 25.9 µM (inactive)
GI50 (A498): > 100 µM (inactive)
GI50 (CCRF-CEM): > 100 µM (inactive)
GI50 (SF-295): > 100 µM (inactive)
GI50 (ACHN): > 100 µM (inactive)
GI50 (HOP-62): > 100 µM (inactive)
GI50 (LOX IMVI): > 100 µM (inactive)
GI50 (HT-29): > 100 µM (inactive)
GI50 (NCI-H23): > 100 µM (inactive)
GI50 (HL-60): > 100 µM (inactive)
GI50 (HCT-15): > 100 µM
GI50 (EKVX): > 100 µM (inactive)
GI50 (K562): > 100 µM (inactive)
GI50 (SK-MEL-2): > 100 µM (inactive)
GI50 (UACC-257): > 100 µM (inactive)
GI50 (COLO 205): 88.9 µM (inactive)
GI50 (OVCAR-4): > 100 µM (inactive)
GI50 (MOLT-4): > 100 µM (inactive)
GI50 (OVCAR-5): > 100 µM (inactive)
GI50 (M19-MEL): > 100 µM (inactive)
GI50 (SN12C): > 100 µM (inactive)
GI50 (SF-539): > 100 µM (inactive)
